Results from US10766869B2, “Triazoles for the treatment of demyelinating dieases” (Vertex Pharmaceuticals Incorporated, priority 2015, dated 2020).

Tested on: primary rat mixed cortical cells
Assay: In vitro myelination assay (MBP positive myelin strands, fold myelin pixels above background)
Assay type: cell-based
Conditions: Rattus norvegicus, relative to baseline of no added compound; for fold induction at 1 µM: 1.0 μM compound, read-out: Fold myelin pixels above background, 1.0 μM; for fold induction at 10 µM: 10.0 μM compound, read-out: Fold myelin pixels above background, 10.0 μM
Excerpt: In Vitro Myelination Assay
Compounds were screened for their ability to induce myelination using a primary rat mixed cortical cell culture assay, which contains neurons, oligodendrocyte precursor cells, oligodendrocytes, astrocytes and microglia. The assay quantifies myelination by measuring myelin basic protein (MBP) immunofluorescent positive myelin strands from images taken using a Cellomics Array Scan (model Arrayscan VTI HCS Reader) or a Molecular Devices Image Xpress (model IXM XL) high content imager. The myelin strands were quantitated using a custom created myelin detection software program. Test compounds were dissolved in DMSO to make a 10 mM initial stock solution. Dilutions were made in myelination medium to obtain the final solutions for the assay and were tested in primary rat mixed cortical cells at selected doses.
Primary rat mixed cortical cells were prepared from harvested cerebral cortices from postnatal day 1 (P1) rats (P1 Rat CD® IGS pups) were purchased from Charles River) in Complete Dissociation Medium, wherein the meninges were removed and the cortical tissue chopped with a razor blade into ˜1 mm^3 pieces. Tissue from 1-3 pups was collected and placed into 15 ml conical tubes in a total volume of 5 ml of Complete Dissociation Medium. Activated papain (3 ml) was added to each 15 ml conical tube and tissue was incubated at 37° C. for 30 minutes. After the 30 minute incubation, DNase (Sigma D4527; 75 μl of a 1 mg/ml stock) was added to each tube, followed by mechanical trituration using a 2 ml serological pipette and autopipettor to gently dissociate the tissue. Following trituration, larger tissue pieces were allowed to settle by gravity, and the supernatant containing dissociated cells was transferred to a 50 ml conical tube with 4 ml of trypsin inhibitor. Cells were pelleted by centrifugation, resuspended in myelination medium and filtered through a 40 μm filter. Cells were then seeded in 96-well plates (BD Biosciences, Black, PDL-coated, Cat. No. 356640) at 87,500-95,000 cells/well in a final volume of 200 μl of Myelination Medium in the presence or absence of compound and cultured for 14 days in a humidified 37° C. incubator with 5% CO2. Half the medium was removed and replaced with fresh medium containing 1× compound on days 6 and 10. Using a Biotek automatic plate washer (model Biomek® FXP Laboratory Automation Workstation), cells were fixed with 4% paraformaldehyde on day 14, washed with PBS and blocked in 5% normal goat serum (Vector Laboratories, S-1000) in 0.1% PBS-TritonX-100 (PBST) for 1 hour. Cells were stained with 1:500 anti-MBP (Covance, cat # SMI99) primary antibody in 1% normal goat serum in 0.1% PBST for 2 hours at room temperature followed by 2 washes with PBST. A final incubation in secondary antibody (1:1000, Invitrogen, Alexa-488 anti-mouse IgG2b) and 1:10,000 Hoechst dye in 1% normal goat serum in 0.1% PBST was performed for 2 hours at room temperature. Plates were washed with PBS and then scanned on a Cellomics Array Scan using a 10× objective (25 images per well) or the Image Xpress using a 10× objective (9 image per well). Images were analyzed using Vertex myelin detection software (described below) to quantify total MBP myelin pixels per well. Fold myelin pixels above background at two concentrations (1.0 μM and 10.0 μM) relative to baseline of no added compound are reported below in Table 4. Standard deviation for each compound concentration was calculated using all replicates and using a standard deviation formula commonly used in the art.
One of skill in the art would recognize that for this type of primary neuronal mixed cell assay variability between different assay runs is to be expected even though the protocol is the same for each assay run. For instance, variability may be due to small differences in cell viability, cell density, age of the animals, etc.
Vertex Myelin Detection Software: […]

SMILES	fold induction at 1 µM	fold induction at 10 µM
CCc1cc(Nc2ncn(-c3cccc(F)c3)n2)cc(N2CC(N3CCOCC3)C2)c1 [Compound 15, N-[3-ethyl-5-(3-morpholinoazetidin-1-yl)phenyl]-1-(3-fluorophenyl)-1,2,4-triazol-3-amine]	100 to 1000	10 to 100
CCc1cc(Nc2ncn(-c3ccnc(F)c3)n2)cc(N2CCN(C3COC3)CC2)c1 [Compound 16, N-[3-ethyl-5-[4-(oxetan-3-yl)piperazin-1-yl]phenyl]-1-(2-fluoro-4-pyridyl)-1,2,4-triazol-3-amine]	100 to 1000	10 to 100
CC(C)(C)c1cc(Nc2ncn(-c3cc(F)cc(F)c3)n2)cc(N2CCN(C3COC3)CC2)c1 [Compound 17, N-[3-tert-butyl-5-[4-(oxetan-3-yl)piperazin-1-yl]phenyl]-1-(3,5-difluorophenyl)-1,2,4-triazol-3-amine]	100 to 1000	≤ 1
Cc1cc(Nc2ncn(-c3ccccc3)n2)cc(C2(F)CCN(C3COC3)C2)c1 (centres unmarked) [Compound 18, N-[3-[3-fluoro-1-(oxetan-3-yl)pyrrolidin-3-yl]-5-methyl-phenyl]-1-phenyl-1,2,4-triazol-3-amine]	1000 to 10000	1 to 10
Cc1cc(Nc2ncn(-c3cc(F)cc(F)c3)n2)cc(N2CCn3ccnc3C2)c1 [Compound 19, 1-(3,5-difluorophenyl)-N-[3-(6,8-dihydro-5H-imidazo[1,2-a]pyrazin-7-yl)-5-methyl-phenyl]-1,2,4-triazol-3-amine]	10 to 100	1 to 10
Cc1cc(Nc2ncn(-c3cnccn3)n2)cc(N2CCN(C3CC3)CC2)c1 [Compound 20, N-[3-(4-cyclopropylpiperazin-1-yl)-5-methyl-phenyl]-1-pyrazin-2-yl-1,2,4-triazol-3-amine]	10 to 100	100 to 1000
Cc1cc(Nc2ncn(-c3ccccc3)n2)cc(N2CC(C)NCC2C)c1 (centres unmarked) [Compound 21, N-[3-(2,5-dimethylpiperazin-1-yl)-5-methyl-phenyl]-1-phenyl-1,2,4-triazol-3-amine]	10 to 100	≤ 1
COc1ccc(-n2cnc(Nc3cc(C4CC4)nc(N4CCC(C)CC4)c3)n2)cc1OC [Compound 22, 2-cyclopropyl-N-[1-(3,4-dimethoxyphenyl)-1,2,4-triazol-3-yl]-6-(4-methyl-1-piperidyl)pyridin-4-amine]	100 to 1000	100 to 1000
Cc1cc(Nc2ncn(-c3cc(F)cc(F)c3)n2)cc(C2(F)CCN(C)C2)c1 (centres unmarked) [Compound 23, 1-(3,5-difluorophenyl)-N-[3-(3-fluoro-1-methyl-pyrrolidin-3-yl)-5-methyl-phenyl]-1,2,4-triazol-3-amine]	10 to 100	10 to 100
Cc1cc(Nc2ncn(-c3cncc(F)c3)n2)cc(N2CCN(C3COC3)CC2)c1 [Compound 24, 1-(5-fluoro-3-pyridyl)-N-[3-methyl-5-[4-(oxetan-3-yl)piperazin-1-yl]phenyl]-1,2,4-triazol-3-amine]	10 to 100	100 to 1000
Cc1cc(Nc2ncn(-c3cc(F)cc(F)c3)n2)cc(C2CCN(C3COC3)C2)c1 (centres unmarked) [Compound 25, 1-(3,5-difluorophenyl)-N-[3-methyl-5-[1-(oxetan-3-yl)pyrrolidin-3-yl]phenyl]-1,2,4-triazol-3-amine]	1000 to 10000	1000 to 10000
FC(F)c1cc(Nc2ncn(-c3ccccc3)n2)cc(N2CCN(C3COC3)CC2)c1 [Compound 26, N-[3-(difluoromethyl)-5-[4-(oxetan-3-yl)piperazin-1-yl]phenyl]-1-phenyl-1,2,4-triazol-3-amine]	100 to 1000	≤ 1
Cc1cc(Nc2ncn(-c3cccc(F)c3)n2)cc(N2CCOCC2)c1 [Compound 27, 1-(3-fluorophenyl)-N-(3-methyl-5-morpholino-phenyl)-1,2,4-triazol-3-amine]	1000 to 10000	100 to 1000
